Data taken from publication PMC7767178 (International Journal of Molecular Sciences, 2020).
Like-named read-outs stand apart in the source and are kept apart here. Positions of bridges follow the written chain, without caps; N, C: chain ends. Residues, ends and D or L forms follow the SMILES beside them.

What was measured:
[1] = tested on: Aeromonas veronii ACCC61732
Description: (§1) Briefly, the tested strains including Gram-negative bacteria, Gram-positive bacteria, and fungi were cultured to the logarithmic growth phase, diluted to 10^5 CFU/mL, and added into 96-well plates (90 μL/well). Two-fold serial dilutions of peptides or antibiotics dissolved in PBS were added to each well (10 μL/well). […] All experiments were repeated three times.

[2] = tested on: Pseudomonas aeruginosa CICC21630
Description: as §1

[3] = tested on: S. aureus ATCC25923
Description: as §1

[4] = tested on: S. aureus ATCC546
Description: as §1

[5] = tested on: A. veronii ATCC35624; type: cell-based
[6] = tested on: S. hyicus 437-2; type: cell-based
[7] = tested on: A. veronii ACCC61732; assay: Inner membrane permeability, PI staining, flow cytometry; type: cell-based
Description: To analyze effects of peptides on the inner membrane, A. veronii ACCC61732 cells were cultured to mid-log phase at 37 °C in MHB medium, washed thrice with PBS, and resuspended in the PBS buffer to 1 × 10^8 CFU/mL. […] After fixation with PI, the samples were detected by a fluorescent inverted microscope and FACS Calibur Flow Cytometer (BD, San Jose, CA, USA), respectively. Cell Quest Pro software (BD, San Jose, CA, USA) was used for the data analysis.

[8] = tested on: A. veronii ACCC61732; assay: ATP release, BacTiter-Glo; type: cell-based; conditions: 8×, 16× and 32× MIC, 60 min, 37 °C, luminescence, n = 3
Description: The assay was performed for three biological replicates at 37 °C, with luminescence recorded using a Tecan Infinite M1000 Pro plate reader. The fold reduction of ATP was calculated as: Fold reduction ATP = 1 − (Ltreat − Lmedia/Lcontrol − Lmedia), where Ltreat is the luminescence of treated cells, Lmedia is the luminescence of MHB without cells, and Lcontrol is the luminescence of untreated cells. Resultant graphs show mean (n = 3) and SEM for each data point, prepared in Prism 7 [46].

[9] = tested on: A. veronii ACCC61732 genomic DNA; assay: CD spectra of genomic DNA with peptides; type: binding; conditions: mass ratios 2.5 and 10.0, 10 min, room temperature
Description: CD spectra were performed to examine the secondary structure of genomic DNA from A. veronii ACCC61732 after incubation with peptides. […] The mixtures were loaded into a cuvette of 1.0-mm path length and scanned from 190 to 330 nm at 25 °C using a Pistar π-180 CD spectrometer (Applied Photophysics Ltd., Surry, UK).

[10] = tested on: A. veronii ACCC61732 biofilms; assay: Mouse model of catheter-associated biofilm infection, bacteria in catheter; type: in vivo, ICR mice; conditions: 5 μmol/kg peptide or CIP 24 h after catheter implantation, catheters collected after seven days, six mice per group
Description: Briefly, the catheter was cut into 1 cm segments; each piece was sterilized with 70% ethanol and then dried by air. Bacterial biofilms were developed on the catheter by placing individual segments into tubes containing 1.0 mL of a cell suspension (1 × 10^8 CFU/mL) in TSB. After incubation for 24 h at 37 °C, colonized catheters were recovered aseptically and rinsed with PBS to remove unbound bacteria. ICR female mice (20 ± 5 g) were anesthetized with isoflurane; the flanks were shaved and the skin was cleansed with alcohol. […] The incision was then covered with intact skin and closed with surgical suture line and the skin was disinfected. […] The untreated mice were used as the negative control and the mice with sterile catheter were used as the blank control. The mice were anesthetized and sacrificed after seven days. The catheters in the back of the mice were collected and thoroughly shaken in sterile PBS.

[11] = tested on: IL-10; assay: Serum cytokine, ELISA, peritonitis model; type: in vivo; conditions: 5 μmol/kg, 24 h after treatment, range over mice
Description: (§2) Sera and organs (livers, kidneys, spleens, and lungs) were collected from the mice at 24 h post-treatment. The organs were homogenized in sterile PBS to evaluate bacterial translocation by colony counting. The levels of cytokines (TNF-α, IL-1β, IL-6, and IL-10) in sera were detected using the ELISA kits.

[12] = tested on: IL-1β; assay: Serum cytokine, ELISA, peritonitis model; type: in vivo; conditions: 5 μmol/kg, 24 h after treatment, range over mice
Description: as §2

[13] = tested on: IL-6; assay: Serum cytokine, ELISA, peritonitis model; type: in vivo; conditions: 5 μmol/kg, 24 h after treatment, range over mice
Description: as §2

[14] = tested on: TNF-α; assay: Serum cytokine, ELISA, peritonitis model; type: in vivo; conditions: 5 μmol/kg, 24 h after treatment, range over mice
Description: as §2

[15] = in vitro; conditions: mouse, 25% mouse serum
[16] = tested on: A. veronii; assay: MIC, range over strains; type: cell-based; conditions: range over the strains of Table 2
Description: (§3) All experiments were repeated three times.

[17] = tested on: Escherichia coli; assay: MIC, range over strains; type: cell-based; conditions: range over the strains of Table 2
Description: as §3

[18] = tested on: mouse erythrocytes; assay: Hemolysis; type: cell-based; conditions: 256 μg/mL; 8% mouse erythrocyte suspension, 37 °C, 1 h, absorbance 540 nm
Description: To determine the hemolysis of peptides, eyeball blood was collected from 6-week-old SPF ICR mice. The blood was centrifuged at 4 °C for 10 min (1500 rpm), washed three times with 0.9% physiological saline, and diluted to 8% suspension. […] Red blood cell suspensions and peptide solutions (100 μL) were mixed in 96-well plates, centrifuged at 4 °C for 5 min (1500 rpm), and incubated at 37 °C for 1 h. The supernatant was added into a 96-well plate and the UV absorbance was measured at 540 nm using a microplate reader. Physiological saline and 0.1% Triton X-100 were used as 0% and 100% hemolytic controls, respectively. The hemolytic ratio was calculated as follows: Hemolysis (%) = [(Abspeptide − Abssaline)/(Abs0.1%Triton X-100 − Abssaline)] × 100% [38].

[19] = tested on: Salmonella; conditions: range over the strains of Table 2
[20] = tested on: trypsin; conditions: pH 8
[21] = Aeromonas veronii ACCC61732 (MDR), broth dilution, 37 °C, 16–18 h, three experiments
[22] = Pseudomonas aeruginosa CICC21630, broth dilution, 37 °C, 16–18 h, three experiments
[23] = S. aureus ATCC25923, broth dilution, 37 °C, 16–18 h, three experiments
[24] = S. aureus ATCC546, broth dilution, 37 °C, 16–18 h, three experiments
[25] = A. veronii ATCC35624, broth dilution, 37 °C, 16–18 h, three experiments
[26] = S. hyicus 437-2 (clinical isolate, pig farm), broth dilution, 37 °C, 16–18 h, three experiments

Compound | MIC [1, 21] [µg/mL] | MIC [2, 22] [µg/mL] | MIC [3, 23] [µg/mL] | MIC [4, 24] [µg/mL] | MIC [5, 25] [µg/mL] | MIC ([5]; ATCC35624) [µM] | MIC [6, 26] [µg/mL] | Permeability (PI-positive cells) ([7]; 1× MIC, 0.5 h) [%] | Permeability (PI-positive cells) ([7]; 1× MIC, 2 h) [%] | Permeability (PI-positive cells) ([7]; 2× MIC, 0.5 h) [%] | Permeability (PI-positive cells) ([7]; 2× MIC, 2 h) [%] | ATP release [8] | effect on CD spectrum of genomic DNA [9] | decrease of bacterial cells in the catheter [10] [%] | serum level of IL-10 [11] | remaining at 2 h [15] [%] | remaining at 4.5 h [15] [%] | remaining at 6 h [15] [%] | further results
CC(C)[C@@H]1NC(=O)CNC(=O)[C@H](CC(N)=O)NC(=O)[C@H](CCCNC(=N)N)NC(=O)[C@H](Cc2ccc(O)cc2)NC(=O)[C@H](C(C)C)NC(=O)[C@@H](NC(=O)[C@@H](NC(=O)[C@H](CC(N)=O)NC(=O)[C@H](Cc2c[nH]c3ccccc23)NC(=O)[C@H](C)NC(=O)[C@H](Cc2ccccc2)NC(=O)CN)C(C)C)CSSC[C@@H](C(=O)N[C@@H](Cc2cnc[nH]2)C(=O)N[C@@H](CCCNC(=N)N)C(=O)N[C@@H](CCCNC(=N)N)C(=O)N[C@@H](C)C(=O)N[C@@H](CC(N)=O)C(N)=O)NC(=O)[C@H](C(C)C)NC(=O)[C@H](CCCNC(=N)N)NC1=O [N6NH2] | 4 | 64 | 32 | 16 | 8 | 3.23 | 32 | 0 | 1.39 | 0 | 1.49 | 56.07–90.00% | do not affect the double helix of genomic DNA | 41.48 | 17.02 to 20.87 pg/mL | 85.9 | 58 | 41.9 | MIC ([2]; CICC21630): 25.8 µM; MIC ([3]; ATCC25923): 12.9 µM; MIC ([4]; ATCC546): 6.46 µM; MIC [6]: 12.9 µM; serum level of IL-1β [12]: 6.06 to 10.82 pg/mL; serum level of IL-6 [13]: 47.22 to 108.59 pg/mL; serum level of TNF-α [14]: 40.65 to 55.67 pg/mL
CC(C)[C@@H]1NC(=O)CNC(=O)[C@H](CC(N)=O)NC(=O)[C@H](CCCNC(=N)N)NC(=O)[C@H](Cc2ccc(O)cc2)NC(=O)[C@H](C(C)C)NC(=O)[C@@H](NC(=O)[C@@H](NC(=O)[C@H](CC(N)=O)NC(=O)[C@H](Cc2c[nH]c3ccccc23)NC(=O)[C@H](C)NC(=O)[C@H](Cc2ccccc2)NC(=O)CN)C(C)C)CSSC[C@@H](C(=O)N[C@@H](Cc2c[nH]cn2)C(=O)N[C@@H](CCCNC(=N)N)C(=O)N2CCC[C@H]2C(=O)N[C@@H](C)C(=O)N[C@@H](CC(N)=O)C(N)=O)NC(=O)[C@H](C(C)C)NC(=O)[C@H](CCCNC(=N)N)NC1=O [N6PNH2] (H-GFAWNVCVYRNGVRVCHRPAN-NH2; disulfide 7-16 (inferred)) | 16 | >64 | >64 | >64 | 64 | 26.49 | >64 | 0 | 2.11 | 0.68 | 1.35 | 77.39–90.34% | do not affect the double helix of genomic DNA | 54.09 | no discrepancy of IL-10 levels | 95.2 | 84.9 | 79.9 | MIC [1]: 6.62 µM; MIC values against A. veronii [16]: 6.62 to 26.49 µM; MIC values against Escherichia coli [17]: 1.66 to 3.31 µM; hemolysis [18]: 0.56%; Permeability (PI-positive cells) ([7]; 4× MIC, 0.5 h): 0%; Permeability (PI-positive cells) ([7]; 4× MIC, 2 h): 1.23%; MIC values against Salmonella [19]: 0.83 to 13.25 µM; MIC after trypsin treatment [20]: lost their activity
